Results published in BindingDB's records for patent US20240018151 (Tme Therapeutics, 2024).

Target: 1-phosphatidylinositol 3-phosphate 5-kinase (Homo sapiens, UniProt Q9Y2I7)
Experiment: ADP-GLO Kinase Assay
Method: Briefly, 4 compound solution and 4 ATP solution are prepared with assay buffer (50 mM MOPS, 1 mM DTT, pH7.2). 4 Substrate solution and 4 kinase/Metal solution are prepared with MOPS based buffer containing individual kinase specific additives. Then, […], 5 μL of 4 Substrate solution, 5 μL of 4 ATP solution, and 5 μL of 4 kinase/Metal solution are mixed and incubated in a well of polystyrene 384 well black microplate for 1 hour at room temperature. Next, 20 μL of ADP-Glo Reagent (Promega) is added to the well,and incubated for over 40 minutes. 40 μL of Kinase Detection Reagent (Promega) is added to the well, and incubated for over 40 minutes. The kinase reaction is evaluated by the endpoint luminescence of the well. For measurement of PIKFYVE activity, the substrate is PI3P at 10,000 nM concentration, using AG-182 as a positive control. The metal used is magnesium at 5 mM concentration.

Chain of 1-phosphatidylinositol 3-phosphate 5-kinase (Q9Y2I7 whole entry): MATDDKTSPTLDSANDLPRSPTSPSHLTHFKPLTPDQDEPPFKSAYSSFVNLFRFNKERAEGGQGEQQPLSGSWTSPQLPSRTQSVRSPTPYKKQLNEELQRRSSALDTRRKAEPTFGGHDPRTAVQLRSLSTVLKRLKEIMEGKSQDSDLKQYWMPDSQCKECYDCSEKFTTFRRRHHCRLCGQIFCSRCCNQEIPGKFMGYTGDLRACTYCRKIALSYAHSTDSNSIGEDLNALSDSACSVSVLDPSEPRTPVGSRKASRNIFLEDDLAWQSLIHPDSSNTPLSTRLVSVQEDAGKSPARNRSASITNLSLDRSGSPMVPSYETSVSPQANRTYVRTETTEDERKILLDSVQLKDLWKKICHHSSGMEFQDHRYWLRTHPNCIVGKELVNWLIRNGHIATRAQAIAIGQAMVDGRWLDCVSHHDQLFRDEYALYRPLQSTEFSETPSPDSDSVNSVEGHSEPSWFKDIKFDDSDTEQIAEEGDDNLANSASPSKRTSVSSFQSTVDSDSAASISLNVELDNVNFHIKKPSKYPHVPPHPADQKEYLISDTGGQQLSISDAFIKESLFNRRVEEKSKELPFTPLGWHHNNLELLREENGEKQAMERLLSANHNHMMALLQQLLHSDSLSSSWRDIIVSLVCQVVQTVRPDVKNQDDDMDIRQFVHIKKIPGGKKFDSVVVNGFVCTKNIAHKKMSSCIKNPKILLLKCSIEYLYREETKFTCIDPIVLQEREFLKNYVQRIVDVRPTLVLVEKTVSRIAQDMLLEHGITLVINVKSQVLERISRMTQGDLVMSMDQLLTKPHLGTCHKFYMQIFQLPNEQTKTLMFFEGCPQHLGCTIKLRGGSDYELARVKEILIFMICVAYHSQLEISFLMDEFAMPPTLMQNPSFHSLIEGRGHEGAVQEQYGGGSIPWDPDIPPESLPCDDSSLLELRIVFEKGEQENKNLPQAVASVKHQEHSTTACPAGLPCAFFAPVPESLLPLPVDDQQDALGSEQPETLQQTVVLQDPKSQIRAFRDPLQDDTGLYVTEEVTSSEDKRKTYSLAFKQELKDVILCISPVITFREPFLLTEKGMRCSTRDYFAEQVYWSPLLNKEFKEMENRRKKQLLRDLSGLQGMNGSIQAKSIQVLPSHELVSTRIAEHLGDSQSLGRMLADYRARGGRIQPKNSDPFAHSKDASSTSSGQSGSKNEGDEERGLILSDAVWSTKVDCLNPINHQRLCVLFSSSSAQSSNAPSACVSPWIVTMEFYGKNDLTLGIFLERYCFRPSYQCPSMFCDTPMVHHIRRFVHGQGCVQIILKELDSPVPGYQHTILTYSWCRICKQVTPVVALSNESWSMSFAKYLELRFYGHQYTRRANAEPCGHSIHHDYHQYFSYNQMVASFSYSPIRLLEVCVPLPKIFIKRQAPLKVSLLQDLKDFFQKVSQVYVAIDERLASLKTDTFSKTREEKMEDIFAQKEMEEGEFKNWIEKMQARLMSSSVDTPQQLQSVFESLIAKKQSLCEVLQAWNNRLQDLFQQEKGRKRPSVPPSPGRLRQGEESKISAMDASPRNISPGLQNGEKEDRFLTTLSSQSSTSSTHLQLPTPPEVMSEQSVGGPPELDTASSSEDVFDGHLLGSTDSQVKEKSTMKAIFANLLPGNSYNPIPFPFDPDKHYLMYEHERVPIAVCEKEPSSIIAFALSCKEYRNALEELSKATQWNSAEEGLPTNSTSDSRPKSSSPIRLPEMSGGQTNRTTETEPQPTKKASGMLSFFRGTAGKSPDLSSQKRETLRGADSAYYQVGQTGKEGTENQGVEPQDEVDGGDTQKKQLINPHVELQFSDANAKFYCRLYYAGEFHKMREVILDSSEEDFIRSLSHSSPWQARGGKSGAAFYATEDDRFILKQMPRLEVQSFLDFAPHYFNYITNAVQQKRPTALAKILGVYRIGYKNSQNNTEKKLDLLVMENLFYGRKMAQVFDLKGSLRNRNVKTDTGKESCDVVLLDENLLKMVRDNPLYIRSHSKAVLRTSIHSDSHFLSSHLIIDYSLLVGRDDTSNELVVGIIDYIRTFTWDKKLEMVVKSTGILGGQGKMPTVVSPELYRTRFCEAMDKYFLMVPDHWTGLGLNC

Brc1cccc(-c2ccn(-c3cc(N4CCOCC4)n4nc(-c5ccncc5)cc4n3)n2)c1 [US20240018151, Example 3]
IC50: < 50 nM
